Measurements from ChEMBL document CHEMBL6087451, “Design, Synthesis, and Biological Evaluation of 2-Arylaminopyrimidine Derivatives as Dual Cathepsin L and JAK Inhibitors for the Treatment of Acute Lung Injury” (J Med Chem, 2025).
Calls of active or inactive are those of the source. No cut-off for these calls is given here.

Columns and labels:
[1] = AUC (0 to t) in Sprague-Dawley rat at 3.5 mg/kg, po measured for 24 hrs by LC-MS/MS analysis; assay type: ADME, organism-based; conditions: in vivo
[2] = Half life in Sprague-Dawley rat at 3.5 mg/kg, iv measured for 24 hrs by LC-MS/MS analysis; assay type: ADME, organism-based; conditions: in vivo
HBE [3] = experiment: Anti-inflammatory activity against HBE cells assessed as inhibition of LPS-induced p-Ikappa-Balpha level pretreated for 30 mis followed by LPS treatment for 16 hrs by Western blot analysis; assay type: functional, cell-based; conditions: Homo sapiens, dose 0.5-5 µM, time 16.5 hrs
RAW264.7 [4] = experiment: Anti-inflammatory activity against mouse RAW264.7 cells assessed as inhibition of LPS-induced iNOS level by Western blot analysis; assay type: functional, cell-based; conditions: dose 50-500 nM
cells = conditions: Homo sapiens, HBE
Procathepsin L [5] = biological target: T1, Procathepsin L (Homo sapiens, UniProt P07711); experiment: Inhibition of recombinant human Cat L using f Z-Phe-Arg-AMC as substrate preincubated for 30 mins followed by substrate addition
Target sequence in this assay (P07711 whole entry): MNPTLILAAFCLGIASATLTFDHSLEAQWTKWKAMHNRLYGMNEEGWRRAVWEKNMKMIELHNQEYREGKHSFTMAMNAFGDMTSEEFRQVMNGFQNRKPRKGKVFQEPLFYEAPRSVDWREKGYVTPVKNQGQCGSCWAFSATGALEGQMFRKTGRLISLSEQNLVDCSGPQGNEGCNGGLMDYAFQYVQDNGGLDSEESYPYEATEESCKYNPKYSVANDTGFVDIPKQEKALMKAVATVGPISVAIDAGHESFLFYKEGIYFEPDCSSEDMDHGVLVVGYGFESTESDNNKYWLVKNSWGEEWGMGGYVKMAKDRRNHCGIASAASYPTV

[6] = biological target: T2, Serine/threonine-protein kinase Chk1 (Homo sapiens) (UniProt O14757); experiment: Inhibition of CHK1 (unknown origin) at 1 uM by kinase profiling analysis relative to control
T2 sequence (whole entry): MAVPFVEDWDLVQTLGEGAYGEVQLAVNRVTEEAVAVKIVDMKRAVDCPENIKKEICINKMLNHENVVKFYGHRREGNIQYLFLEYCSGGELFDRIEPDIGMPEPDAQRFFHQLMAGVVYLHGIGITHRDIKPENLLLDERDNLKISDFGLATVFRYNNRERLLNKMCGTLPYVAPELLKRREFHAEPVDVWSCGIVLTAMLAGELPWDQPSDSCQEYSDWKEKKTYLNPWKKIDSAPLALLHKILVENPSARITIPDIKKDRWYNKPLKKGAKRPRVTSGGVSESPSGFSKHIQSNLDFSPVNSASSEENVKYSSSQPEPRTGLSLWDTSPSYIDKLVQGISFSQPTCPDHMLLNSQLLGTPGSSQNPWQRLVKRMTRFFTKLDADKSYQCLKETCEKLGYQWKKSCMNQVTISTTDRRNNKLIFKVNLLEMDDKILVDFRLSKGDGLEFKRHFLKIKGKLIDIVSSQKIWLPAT

[7] = Anti-inflammatory activity against HBE cells assessed as inhibition of LPS-induced IL-8 level at 5 uM pretreated for 30 mins followed by LPS treatment for 24 hrs by ELISA relative to control; assay type: functional; conditions: Homo sapiens, time 24.5 hrs
[8] = Cmax in Sprague-Dawley rat at 3.5 mg/kg, ip measured for 24 hrs by LC-MS/MS analysis; assay type: ADME, organism-based; conditions: in vivo
Mus musculus [9] = experiment: (§1) Anti-inflammatory activity in C57BL/6 mouse model of LPS-induced acute lung injury assessed as decrease in disruption of epithelial cell structures in lung at 10 mg/kg, ip treated for 3 days followed by LPS treatment after 1 hr post-compound administration on fourth day measured after 18 hrs post-LPS treatment by H and E staining based analysis; assay type: functional, organism-based; conditions: time 91.0 hrs
Mus musculus [10] = experiment: Anti-inflammatory activity in C57BL/6 mouse model of LPS-induced acute lung injury assessed as decrease in total protein concentration in BALF at 10 mg/kg, ip treated for 3 days followed by LPS treatment after 1 hr post-compound administration on fourth day measured after 18 hrs post-LPS treatment; assay type: functional, organism-based; conditions: time 91.0 hrs
[11] = Anti-inflammatory activity against HBE cells assessed as inhibition of LPS-induced IL-6 level at 5 uM pretreated for 30 mins followed by LPS treatment for 24 hrs by ELISA relative to control; assay type: functional; conditions: Homo sapiens, time 24.5 hrs
RAW264.7 [12] = experiment: Anti-inflammatory activity against mouse RAW264.7 cells assessed as inhibition of LPS-induced IL-6 level
RAW264.7 [13] = experiment: Cytotoxicity against mouse RAW264.7 cells assessed as cell viability at 0.5 to 5 uM; assay type: toxicity, cell-based; conditions: raw264.7, 5 µM, dose 0.5-5 µM
RAW264.7 [14] = experiment: Anti-inflammatory activity against mouse RAW264.7 cells assessed as inhibition of LPS-induced COX-2 level by Western blot analysis; assay type: functional, cell-based; conditions: dose 50-500 nM
Mus musculus [15] = experiment: In vivo inhibition of mature CTSL in lung of C57BL/6 mouse model of LPS-induced acute lung injury at 10 to 20 mg/kg, ip treated for 3 days followed by LPS treatment after 1 hr post-compound administration on fourth day measured after 18 hrs post-LPS treatment by Western blot analysis; assay type: functional, organism-based; conditions: dose 10-20 mg/kg, time 91.0 hrs
HBE [16] = experiment: Anti-inflammatory activity against HBE cells assessed as inhibition of LPS-induced IL-6 level pretreated for 30 mins followed by LPS treatment for 24 hrs by ELISA; conditions: Homo sapiens, dose <= 5.0 µM, time 24.5 hrs
[17] = AUC (0 to infinity) in Sprague-Dawley rat at 3.5 mg/kg, iv measured for 24 hrs by LC-MS/MS analysis; assay type: ADME, organism-based; conditions: in vivo
Mus musculus [18] = experiment: (§2) Anti-inflammatory activity in C57BL/6 mouse model of LPS-induced acute lung injury assessed as decrease in TNF-alpha mRNA level in lung at 10 mg/kg, ip treated for 3 days followed by LPS treatment after 1 hr post-compound administration on fourth day measured after 18 hrs post-LPS treatment by RT-qPCR analysis; assay type: functional, organism-based; conditions: time 91.0 hrs
Mus musculus [19] = experiment: as §2, with “IL-6” for “TNF-alpha”; assay type: functional, organism-based; conditions: time 91.0 hrs
[20] = AUC (0 to t) in Sprague-Dawley rat at 3.5 mg/kg, ip measured for 24 hrs by LC-MS/MS analysis; assay type: ADME, organism-based; conditions: in vivo
Procathepsin L [21] = biological target: T1, Procathepsin L; experiment: Inhibition of CTSL maturation in HBE cells pretreated for 30 mis followed by LPS treatment for 16 hrs by Western blot analysis; assay type: cell-based; conditions: dose 0.5-5 µM, time 16.5 hrs
Target sequence in this assay (P07711 114-333 limits assumed): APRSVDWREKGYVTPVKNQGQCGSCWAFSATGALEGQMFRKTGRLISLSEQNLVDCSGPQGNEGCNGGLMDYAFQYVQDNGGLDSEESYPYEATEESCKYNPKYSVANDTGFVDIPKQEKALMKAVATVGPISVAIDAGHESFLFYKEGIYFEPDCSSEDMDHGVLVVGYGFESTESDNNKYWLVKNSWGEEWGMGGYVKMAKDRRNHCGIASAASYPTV

[22] = Half life in Sprague-Dawley rat at 3.5 mg/kg, po measured for 24 hrs by LC-MS/MS analysis; assay type: ADME, organism-based; conditions: in vivo
[23] = biological target: Receptor-type tyrosine-protein kinase FLT3 (Homo sapiens) (UniProt P36888); experiment: Inhibition of FLT3 (unknown origin) at 1 uM by kinase profiling analysis relative to control
Mus musculus [24] = experiment: as §1, with “pulmonary edema” for “disruption of epithelial cell structures”; assay type: functional, organism-based; conditions: time 91.0 hrs
[25] = AUC (0 to infinity) in Sprague-Dawley rat at 3.5 mg/kg, ip measured for 24 hrs by LC-MS/MS analysis; assay type: ADME, organism-based; conditions: in vivo
RAW264.7 [26] = experiment: Anti-inflammatory activity against mouse RAW264.7 cells assessed as inhibition of LPS-induced IL-6 mRNA level at 50 to 500 nM by RT-qPCR analysis; assay type: functional, cell-based; conditions: dose 50-500 nM
[27] = Oral bioavailability in Sprague-Dawley rat at 3.5 mg/kg measured for 24 hrs by LC-MS/MS analysis; assay type: ADME, organism-based; conditions: in vivo
[28] = biological target: Tyrosine-protein kinase JAK2 (Homo sapiens, UniProt O60674); experiment: Inhibition of JAK2 (unknown origin) using TK-biotin as substrate incubated for 30 mins in presence of ATP by HTRF assay
HBE [29] = experiment: Anti-inflammatory activity against HBE cells assessed as inhibition of LPS-induced IL-8 level pretreated for 30 mins followed by LPS treatment for 24 hrs by ELISA; conditions: Homo sapiens, dose <= 5.0 µM, time 24.5 hrs

Tyrosine-protein kinase JAK2, sequence (O60674 whole entry): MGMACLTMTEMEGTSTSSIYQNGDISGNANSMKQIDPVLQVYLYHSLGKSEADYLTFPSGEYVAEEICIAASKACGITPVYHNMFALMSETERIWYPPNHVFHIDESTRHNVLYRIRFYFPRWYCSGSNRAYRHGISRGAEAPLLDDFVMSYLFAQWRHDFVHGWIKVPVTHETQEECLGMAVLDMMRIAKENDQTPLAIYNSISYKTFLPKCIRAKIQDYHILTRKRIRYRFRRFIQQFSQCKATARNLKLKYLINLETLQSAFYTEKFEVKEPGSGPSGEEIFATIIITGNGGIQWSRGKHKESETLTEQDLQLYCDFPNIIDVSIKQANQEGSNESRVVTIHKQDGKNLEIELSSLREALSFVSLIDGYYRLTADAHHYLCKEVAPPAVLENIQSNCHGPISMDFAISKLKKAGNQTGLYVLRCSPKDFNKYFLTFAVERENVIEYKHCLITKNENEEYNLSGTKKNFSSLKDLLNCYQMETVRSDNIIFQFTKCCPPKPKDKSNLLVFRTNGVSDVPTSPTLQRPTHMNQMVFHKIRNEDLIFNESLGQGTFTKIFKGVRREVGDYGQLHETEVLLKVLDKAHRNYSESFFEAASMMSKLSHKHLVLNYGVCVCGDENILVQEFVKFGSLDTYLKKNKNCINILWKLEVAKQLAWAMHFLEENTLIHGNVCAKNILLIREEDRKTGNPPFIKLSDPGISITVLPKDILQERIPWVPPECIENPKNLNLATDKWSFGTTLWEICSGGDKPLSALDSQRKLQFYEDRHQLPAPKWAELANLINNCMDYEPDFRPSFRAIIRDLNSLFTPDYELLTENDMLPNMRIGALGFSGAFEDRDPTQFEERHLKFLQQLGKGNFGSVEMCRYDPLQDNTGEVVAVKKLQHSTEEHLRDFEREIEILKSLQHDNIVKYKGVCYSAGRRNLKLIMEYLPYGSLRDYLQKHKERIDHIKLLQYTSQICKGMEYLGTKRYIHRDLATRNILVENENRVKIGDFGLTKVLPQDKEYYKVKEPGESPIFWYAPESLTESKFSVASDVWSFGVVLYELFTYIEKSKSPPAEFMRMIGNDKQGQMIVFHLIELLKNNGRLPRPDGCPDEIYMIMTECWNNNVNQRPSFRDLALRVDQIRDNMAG
Receptor-type tyrosine-protein kinase FLT3 (Homo sapiens), sequence (P36888 whole entry): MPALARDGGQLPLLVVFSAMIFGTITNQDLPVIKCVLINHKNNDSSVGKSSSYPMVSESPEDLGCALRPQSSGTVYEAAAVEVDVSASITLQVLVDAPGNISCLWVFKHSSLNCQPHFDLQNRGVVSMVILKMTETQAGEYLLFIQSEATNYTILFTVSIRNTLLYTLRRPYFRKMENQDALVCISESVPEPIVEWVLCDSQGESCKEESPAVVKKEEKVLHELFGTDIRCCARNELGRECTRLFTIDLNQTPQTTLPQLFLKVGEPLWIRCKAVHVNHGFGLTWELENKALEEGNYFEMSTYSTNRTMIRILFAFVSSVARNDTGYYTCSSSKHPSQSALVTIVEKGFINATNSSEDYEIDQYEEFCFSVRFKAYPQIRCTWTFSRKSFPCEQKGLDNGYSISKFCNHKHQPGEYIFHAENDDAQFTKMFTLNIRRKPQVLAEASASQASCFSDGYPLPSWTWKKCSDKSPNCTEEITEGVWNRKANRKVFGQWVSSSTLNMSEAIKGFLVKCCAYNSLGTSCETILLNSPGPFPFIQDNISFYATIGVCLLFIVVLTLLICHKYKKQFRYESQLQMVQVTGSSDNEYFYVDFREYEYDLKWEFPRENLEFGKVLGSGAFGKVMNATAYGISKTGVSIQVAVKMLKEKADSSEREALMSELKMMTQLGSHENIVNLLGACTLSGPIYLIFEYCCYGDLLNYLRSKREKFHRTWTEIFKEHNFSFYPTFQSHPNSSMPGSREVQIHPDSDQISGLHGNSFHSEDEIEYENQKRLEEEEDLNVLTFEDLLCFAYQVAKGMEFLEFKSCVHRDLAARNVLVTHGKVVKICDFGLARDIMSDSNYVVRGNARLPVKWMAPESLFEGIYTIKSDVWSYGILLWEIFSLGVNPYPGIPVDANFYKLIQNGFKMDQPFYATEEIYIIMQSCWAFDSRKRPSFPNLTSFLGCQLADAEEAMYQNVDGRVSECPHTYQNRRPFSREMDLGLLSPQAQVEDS

In the case of `Cl.Cn1cc(-c2ccnc(Nc3cccc(N)c3)n2)c2ccccc21`, the AUC(0-t) at 24 h [1] is reported as 157 ng·h/mL, the half-life [2] is reported as 8.29 h and the inhibition (HBE [3]) is reported as “Dose-dependent-effect”. For the same compound, the inhibition (RAW264.7 [4]) was “Dose-dependent-effect”, the IC50 (cells) was 1350 nM and the IC50 (Procathepsin L [5]) was 690 nM. The inhibition [6] was 81.7%, the inhibition at 5 µM [7] was 85% and the Cmax [8] was 193 ng/mL. For the same compound, the Activity (Mus musculus [9]) was “Active”, the Activity (Mus musculus [10]) was “Active” and the inhibition at 5 µM [11] was 83%. For the same compound, the IC50 (RAW264.7 [12]) was 50.1 nM, the Activity (RAW264.7 [13]) was “Non-toxic” and the inhibition (RAW264.7 [14]) was “Dose-dependent-effect”. For the same compound, the inhibition (Mus musculus [15]) was “Active”, the inhibition (HBE [16]) was “Dose-dependent-effect” and the AUC(0-inf) [17] was 680 ng·h/mL. The Activity (Mus musculus [18]) was “Active”, the Activity (Mus musculus [19]) was “Active” and the AUC(0-t) at 24 h [20] was 407 ng·h/mL. The inhibition (Procathepsin L [21]) was “Dose-dependent-effect”, the half-life [22] was 3.21 h and the inhibition [23] was 103%. For the same compound, the Activity (Mus musculus [24]) was “Active”, the AUC(0-inf) [25] was 416 ng·h/mL and the inhibition (RAW264.7 [26]) was “Active”. The bioavailability [27] was 24.9%, the IC50 [28] was 5.25 nM and the inhibition (HBE [29]) was “Dose-dependent-effect”.
